The text below walks through data of US8470829B2 (priority 2004, dated 2013).

Assay [1] concerns the target T1, human androgen receptor (Homo sapiens, UniProt P10275).
T1 construct: expressed in transfected cells
T1 sequence (P10275 1-920): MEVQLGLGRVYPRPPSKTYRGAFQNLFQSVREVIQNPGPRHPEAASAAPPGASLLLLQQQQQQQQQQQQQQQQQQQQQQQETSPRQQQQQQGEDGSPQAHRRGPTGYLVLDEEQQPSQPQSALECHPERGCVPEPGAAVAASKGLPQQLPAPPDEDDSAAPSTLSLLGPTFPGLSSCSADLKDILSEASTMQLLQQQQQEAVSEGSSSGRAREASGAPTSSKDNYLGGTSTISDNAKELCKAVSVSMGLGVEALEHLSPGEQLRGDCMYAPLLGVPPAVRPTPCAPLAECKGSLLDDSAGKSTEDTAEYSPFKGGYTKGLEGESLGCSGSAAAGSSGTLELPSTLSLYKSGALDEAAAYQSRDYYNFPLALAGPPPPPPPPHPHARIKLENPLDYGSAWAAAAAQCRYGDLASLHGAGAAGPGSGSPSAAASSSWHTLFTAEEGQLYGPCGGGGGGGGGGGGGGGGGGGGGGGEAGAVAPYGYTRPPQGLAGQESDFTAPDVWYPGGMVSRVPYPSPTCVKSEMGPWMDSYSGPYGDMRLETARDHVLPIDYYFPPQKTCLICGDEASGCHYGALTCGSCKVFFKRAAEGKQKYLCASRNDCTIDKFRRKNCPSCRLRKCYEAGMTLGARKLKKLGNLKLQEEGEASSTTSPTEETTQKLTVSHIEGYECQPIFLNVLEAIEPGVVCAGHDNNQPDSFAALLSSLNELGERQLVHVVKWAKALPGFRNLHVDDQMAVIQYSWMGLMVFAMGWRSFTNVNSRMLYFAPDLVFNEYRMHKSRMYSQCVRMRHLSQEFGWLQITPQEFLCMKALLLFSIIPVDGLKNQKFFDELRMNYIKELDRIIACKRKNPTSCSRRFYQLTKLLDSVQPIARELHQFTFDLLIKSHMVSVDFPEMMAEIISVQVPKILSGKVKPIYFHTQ
Briefly: Measurement of agonist effect on androgen receptor (reporter gene assay, 11A11B2 cells). In kind it is cell-based. The following applies: compound concentration showing a transcription activity of 5% (0.1 nmol/L DHT = 100%, assay medium alone = 0%), 48 hours. Here is the method:
(§1) HeLa cells (purchased from Dai-Nippon Seiyaku K. K.) were cultured overnight in Dulbecco's Modified Eagle Medium containing no phenol red, but containing 3% charcoal-treated fetal bovine serum (hereafter referred to as DCC-FBS) (this medium is hereafter referred to as phenol-red-free DMEM). An MMTV-Luc-Hyg vector (reporter plasmid with mouse mammary tumor virus long terminal repeat, containing an androgen response element and a hygromycin resistance gene: a vector obtained by substituting a chloramphenicol acetyl transferease gene of a GM-CAT vector (A.T.C.C No. 67282) purchased from the A.T.C.C. with the firefly luciferase gene, and inserting a hygromycin resistance gene as a drug resistant gene), and pSG5-hAR-neo (human androgen receptor expression vector: a vector having an androgen receptor gene under the control of the SV40 promoter, and having a neomycin resistance gene inserted as a drug resistance gene) were transfected into the HeLa cells using an FuGENE™ 6 Transfection Reagent (obtained from Roche).
(§2) The clone cells thus obtained (11A11B2 cells) were maintained and propagated using DMEM containing 400 μg/mL neomycin, 200 μg/mL hygromycin and 10% FBS, and were propagated using phenol-red-free DMEM containing 10% DCC-FBS three to four days prior to the performance of an androgen receptor reporter gene assay.
The 11A11B2 cells were inoculated in a white clear-bottomed 96-well microplate (COSTAR) so that the cell concentration was 1.0×10^4/well, and were cultured overnight using phenol-red-free DMEM containing 3% DCC-FBS (hereafter referred to as the assay medium). Samples of the assay medium containing the compounds of the Examples and compounds of the Comparative Examples were added so that the final concentrations of the compounds of the Examples and compounds of the Comparative Examples were 1, 10, 100, 1,000 and 10,000 nmol/L), and the cells were cultured for 48 hours, after which the transcription activity value was measured. The transcription activity was measured using a Bright-Glo™ Luciferase Assay System (Promega).
The transcription activity rates of the compounds of the Examples were calculated from the transcription activity measured by the abovementioned method, with the transcription activity value obtained at 0.1 nmol/L DHT taken as 100%, and the transcription activity value in the case of the assay medium alone taken as 0%. The compound concentration showing a transcription activity of 5% (EC5 value) was calculated from a linear equation for two points on either side of 5%.

The target in assay [2] is T1, human androgen receptor. Kind of assay: Investigation of antagonist effect on androgen receptor (reporter gene assay, 11A11B2 cells, with DHT). The format is cell-based. The method, then: as §1, §2
The 11A11B2 cells were inoculated in a white clear-bottomed 96-well microplate (COSTAR) so that the cell concentration was 1.0×10^4/well, and were cultured overnight. The assay medium containing DHT was added so that the final concentration of DHT was 0.1 nmol/L, and samples of the assay medium containing the compounds of the Examples or compounds of the Comparative Examples were added so that the final concentrations of the compounds of the Examples or compounds of the Comparative Examples were 1, 10, 100, 1,000 and 10,000 nmol/L, respectively. After culturing for 48, hours, the transcription activity values were measured. The transcription activity was measured using a Bright-Glo™ Luciferase Assay System (Promega).
The transcription activity rates of the compounds of the Examples were calculated from the transcription activity measured by the abovementioned method, with the transcription activity value obtained at 0.1 nmol/L DHT taken as 100%, and the transcription activity value in the case of the assay, medium alone taken as 0%.

[3] abbreviates: with 0.1 nmol/L DHT, transcription activity rate of Test Example 1 subtracted, 11A11B2 cells, 48 hours, read-out: IC50.

SMILES strings stand for the structures. pIC50: −log10 of the molar value. Where two headings read alike, the source gives them in different places.

On human androgen receptor [1], `CN(C)CCCOC(=O)Nc1cc(N2C(=O)N(c3ccc(C#N)c(C(F)(F)F)c3)C(=O)C2(C)C)ccc1Cl` [Example 32, {2-chloro-5-[3-(4-cyano-3-trifluoromethylphenyl)-5,5-dimethyl-2,4-dioxoimidazolidin-1-yl]phenyl}-carbamic acid 3-dimethylaminopropyl ester] returned an EC5 above 10 µM. The pIC50 at human androgen receptor [2] is 6.30.
`CC1(C)C(=O)N(c2ccc(C#N)c(C(F)(F)F)c2)C(=O)N1c1ccc(Cl)c(NC(=O)OCCCCO)c1` [Example 33, {2-chloro-5-[3-(4-cyano-3-trifluoromethylphenyl)-5,5-dimethyl-2,4-dioxoimidazolidin-1-yl]phenyl}-carbamic acid 4-hydroxybutyl ester]: on human androgen receptor [1], the EC5 was above 10 µM. The negative-log IC50 (pIC50) against human androgen receptor [2] is 6.52.
For `CN(C)CCOC(=O)N1CCC(N2C(=S)N(c3ccc(C#N)c(C(F)(F)F)c3)C(=O)C2(C)C)CC1` [Example 36], the EC5 on human androgen receptor [1] was above 10 µM. Also, the pIC50 at human androgen receptor [2] was 6.30.
Turning to `CC1(C)C(=O)N(c2ccc(C#N)c(C(F)(F)F)c2)C(=O)N1c1ccc(Cl)c(NC(=O)OCCN)c1` [Example 37, {2-chloro-5-[3-(4-cyano-3-trifluoromethylphenyl)-5,5-dimethyl-2,4-dioxoimidazolidin-1-yl]phenyl}-carbamic acid 2-aminoethyl ester], the EC5 at human androgen receptor [1] is above 10 µM. Moreover, the negative-log IC50 (pIC50) at human androgen receptor [2] (setting [3]) was 6.15.
For `CCCNC(=O)N1CCC(N2C(=S)N(c3ccc(C#N)c(C(F)(F)F)c3)C(=O)C2(C)C)CC1` [Example 39, 4-[3-(1-n-propylaminocarbonylpiperidin-4-yl)-4,4-dimethyl-5-oxo-2-thioxoimidazolidin-1-yl]-2-trifluoromethylbenzonitrile], in that order: above 10 µM and 6.05.
At human androgen receptor [1], `CCCNC(=O)N1CCC(N2C(=S)N(c3ccc(C#N)c(Cl)c3)C(=O)C2(C)C)CC1` [Example 41, 4-[3-(1-n-propylaminocarbonylpiperidin-4-yl)-4,4-dimethyl-5-oxo-2-thioxoimidazolidin-1-yl]-2-chlorobenzonitrile] came in with an EC5 above 10 µM. The negative logarithm of the IC50 (pIC50) against human androgen receptor [2] was 6.30.
Taken in the same sequence, the figures for `CC1(C)C(=O)N(c2ccc(C#N)c(C(F)(F)F)c2)C(=S)N1c1ccc(Cl)c(NC(=O)OCCO)c1` [Example 46, {2-chloro-5-[3-(4-cyano-3-trifluoromethylphenyl)-5,5-dimethyl-4-oxo-2-thioxoimidazolidin-1-yl]phenyl}-carbamic acid 2-hydroxyethyl ester] were above 10 µM and 6.52.
Take `CC1(C)C(=O)N(c2ccc(C#N)c(Cl)c2)C(=S)N1c1ccc(Cl)c(NC(=O)OCCO)c1` [Example 47, {2-chloro-5-[3-(4-cyano-3-chlorophenyl)-5,5-dimethyl-4-oxo-2-thioxoimidazolidin-1-yl]phenyl}carbamic acid 2-hydroxyethyl ester]: the EC5 at human androgen receptor [1] was above 10 µM. The pIC50 against human androgen receptor [2] was 6.52.
With `COc1cc(N2C(=O)C(C)(C)N(c3ccc(Cl)c(NC(=O)OCCO)c3)C2=S)ccc1C#N` [Example 48, {2-chloro-5-[3-(4-cyano-3-methoxyphenyl)-5,5-dimethyl-4-oxo-2-thioxoimidazolidin-1-yl]phenyl}-carbamic acid 2-hydroxyethyl ester], the EC5 on human androgen receptor [1] is above 10 µM. Also, on human androgen receptor [2] (setting [3]), the negative logarithm of the IC50 (pIC50) is 6.30.
`CC1(C)C(=O)N(c2ccc(C#N)c(C(F)(F)F)c2)C(=S)N1c1ccc(Cl)c(NC(=O)OCC(O)CO)c1` (centres unmarked) [Example 49, {2-chloro-5-[3-(4-cyano-3-trifluoromethylphenyl)-5,5-dimethyl-4-oxo-2-thioxoimidazolidin-1-yl]phenyl}-carbamic acid 2,3-dihydroxypropyl ester] yielded an EC5 on human androgen receptor [1] above 10 µM. The molecule also had a pIC50 against human androgen receptor [2] of 6.52.
On to `CC1(C)C(=O)N(c2ccc(C#N)c(Cl)c2)C(=S)N1c1ccc(Cl)c(NC(=O)OCC(O)CO)c1` (centres unmarked) [Example 50, {2-chloro-5-[3-(4-cyano-3-chlorophenyl)-5,5-dimethyl-4-oxo-2-thioxoimidazolidin-1-yl]phenyl}-carbamic acid 2,3-dihydroxypropyl ester], for which the EC5 at human androgen receptor [1] is above 10 µM. On human androgen receptor [2], this molecule gave a pIC50 of 6.52.
Taken in the same sequence, the figures for `CN(C)CCOC(=O)Nc1cc(N2C(=S)N(c3ccc(C#N)c(C(F)(F)F)c3)C(=O)C2(C)C)ccc1Cl` [Example 52, {2-chloro-5-[3-(4-cyano-3-trifluoromethylphenyl)-5,5-dimethyl-4-oxo-2-thioxoimidazolidin-1-yl]phenyl}-carbamic acid 2-dimethylaminoethyl ester] were above 10 µM and 6.52.
`COc1cc(N2C(=O)C(C)(C)N(c3ccc(Cl)c(NC(=O)OCCN(C)C)c3)C2=S)ccc1C#N` [Example 54, {2-chloro-5-[3-(4-cyano-3-methoxyphenyl)-5,5-dimethyl-4-oxo-2-thioxoimidazolidin-1-yl]phenyl}-carbamic acid 2-dimethylaminoethyl ester] displayed an EC5 on human androgen receptor [1] above 10 µM. The pIC50 at human androgen receptor [2] (setting [3]) is 6.30.
On to `CC1(C)C(=O)N(c2ccc(C#N)c(C(F)(F)F)c2)C(=S)N1c1ccc(Cl)c(NC(=N)N)c1` [Example 55, N-{2-chloro-5-[3-(4-cyano-3-trifluoromethylphenyl)-5,5-dimethyl-4-oxo-2-thioxoimidazolidin-1-yl]phenyl}guanidine], for which, on human androgen receptor [1], the EC5 was above 10 µM. For the same molecule, the pIC50 at human androgen receptor [2] is 6.15.
As to `CC1(C)C(=O)N(c2ccc(C#N)c(C(F)(F)F)c2)C(=S)N1c1ccc(S(N)(=O)=O)cc1` [Example 56, 4-[3-(4-cyano-3-trifluoromethylphenyl)-5,5-dimethyl-4-oxo-2-thioxoimidazolidin-1-yl]benzenesulfonamide], the EC5 on human androgen receptor [1] was above 10 µM. Also, the negative logarithm of the IC50 (pIC50) on human androgen receptor [2] (setting [3]) was 6.40.
On human androgen receptor [1], `CN(C)CCOC(=O)Nc1ccc(N2C(=S)N(c3ccc(C#N)c(C(F)(F)F)c3)C(=O)C2(C)C)cn1` [Example 58, {5-[3-(4-cyano-3-trifluoromethylphenyl)-5,5-dimethyl-4-oxo-2-thioxoimidazolidin-1-yl]pyridin-2-yl}carbamic acid 2-dimethylaminoethyl ester] registered an EC5 above 10 µM. The pIC50 at human androgen receptor [2] was 6.30.
